Assay results from ChEMBL document CHEMBL3734667 (Bioorg Med Chem, 2015).

Legend:
Yellow fever virus = test: Antiviral activity against YFV infected in BHK-21 cells assessed as inhibition of virus-induced cytopathogenicity after 3 to 4 days by MTT assay; assay type: functional, organism-based
[1] = Cytotoxicity against african green monkey Vero 76 cells assessed as cell viability after 48 to 96 hrs by crystal violet staining method; assay type: cell-based; details: chlorocebus sabaeus
Vaccinia virus = test: Antiviral activity against Vaccinia virus; assay type: functional, organism-based; details: Orthopoxvirus vaccinia
[2] = test system: Vesicular stomatitis virus; test: Antiviral activity against VSV; assay type: functional, organism-based
[3] = test system: Human immunodeficiency virus 1; test: Antiviral activity against HIV-1 infected in MT4 cells assessed as inhibition of virus-induced cytopathogenicity after 4 days by MTT assay; assay type: functional, organism-based; details: Human immunodeficiency virus 1, MT4, 96 h
[4] = Cytotoxicity against BHK cells assessed as cell viability after 48 to 96 hrs by MTT assay; assay type: cell-based, Mesocricetus auratus; details: hamster
Coxsackievirus B5 = test: Antiviral activity against human CVB5 infected in african green monkey Vero76 cells assessed as inhibition of virus-induced cytopathogenicity after 3 days by plaque reduction assay; assay type: functional, organism-based; details: Enterovirus B, Vero 76, 72 h
Human orthopneumovirus = test: Antiviral activity against human RSV infected in african green monkey Vero76 cells assessed as inhibition of virus-induced cytopathogenicity after 5 days by plaque reduction assay; assay type: functional, organism-based; details: human respiratory syncytial virus, Vero 76, 120 h
[5] = test system: Bovine viral diarrhea virus 1; test: Antiviral activity against BVDV infected in MDBK cells assessed as inhibition of virus-induced cytopathogenicity after 3 to 4 days by MTT assay; assay type: functional, organism-based; details: Bovine viral diarrhea virus isolates and strains
[6] = Cytotoxicity against human MT4 cells assessed as cell viability after 96 hrs by MTT assay; assay type: cell-based
[7] = Cytotoxicity against MDBK cells assessed as cell viability after 48 to 96 hrs by MTT assay; assay type: cell-based, Bos taurus; details: cattle
[8] = test system: Mammalian orthoreovirus 1; test: Antiviral activity against Reo-1 virus infected in BHK-21 cells assessed as inhibition of virus-induced cytopathogenicity after 3 to 4 days by MTT assay; assay type: functional, cell-based; details: Mammalian orthoreovirus 1, BHK-21
Poliovirus 1 = test: Antiviral activity against Human poliovirus 1 Sabin infected in african green monkey Vero76 cells assessed as inhibition of virus-induced cytopathogenicity by plaque reduction assay; assay type: functional, organism-based; details: Enterovirus C, Vero 76
Human alphaherpesvirus 1 = test: Antiviral activity against HSV1; assay type: functional, organism-based

SMILES	EC50 (Yellow fever virus) [µM]	CC50 [1] [µM]	EC50 (Vaccinia virus) [µM]	EC50 [2] [µM]	EC50 [3] [µM]	CC50 [4] [µM]	EC50 (Coxsackievirus B5) [µM]	EC50 (Human orthopneumovirus) [µM]	EC50 [5] [µM]	CC50 at 96 h [6] [µM]	CC50 [7] [µM]	EC50 [8] [µM]	EC50 (Poliovirus 1) [µM]	EC50 (Human alphaherpesvirus 1) [µM]
NCCn1nnc2ccccc21	> 100	> 100	> 100	> 100	> 100	> 100	> 100	> 100	> 100	> 100	> 100			
COc1cc(/C=C/C(=O)OCCCn2nnc3ccccc32)cc(OC)c1OC	> 100	> 100	> 100	> 100	> 100	> 100	> 100	> 100	> 100	> 100	83			
O=C(Cn1nc2ccccc2n1)N1CCOCC1	> 100	> 100	> 100	> 100	> 100	> 100	> 100	> 100	> 100	> 100	> 100			
COc1ccc(-n2nc3cc(Cl)c(Cl)cc3n2)cc1	> 100	> 100	> 100	> 100	> 100	> 100	> 100	> 100	> 100	> 100	> 100	> 100	> 100	
CC(CC(=O)O)n1nc2ccc([N+](=O)[O-])cc2n1 (stereo unspecified)	> 100	> 100	> 100	> 100	> 100	> 100	> 100	> 100	> 100	> 100	> 100			
COc1cc(C(=O)OCCCn2nnc3ccccc32)cc(OC)c1OC	> 100	100	> 100	> 100	> 100	> 100	> 100	> 100	> 100	> 100	≥ 100			
CN(C)C(=O)Cn1nc2ccccc2n1	> 100	> 100	> 100	> 100	> 100	> 100	> 100	> 100	> 100	> 100	> 100			
COc1cc(/C=C/C(=O)OCCn2nc3ccccc3n2)cc(OC)c1OC	> 100	> 100	> 100	> 100	> 100	> 100	> 100	> 100	> 100	≥ 100	> 100			
COc1cc(C(=O)OCCn2nc3ccccc3n2)cc(OC)c1OC	> 100	1.6	> 100	> 100	> 100	26	> 100	> 100	> 100	0.3	6			
O=C(O)COc1ccc(-n2nc3ccccc3[n+]2[O-])cc1	> 100	> 100	> 100	> 100	> 100	> 100	> 100	> 100	> 100	> 100	> 100	> 100	> 100	
Clc1c(Cl)c(Cl)c2c(nnn2C2CCCO2)c1Cl (stereo unspecified)					> 100					95				
O=C(Cn1nnc2ccccc21)N1CCOCC1	> 100	> 100	> 100	> 100	> 100	> 100	> 100	> 100	> 100	> 100	> 100			
Clc1cc2nnn(C3CCCO3)c2cc1Cl (stereo unspecified)	> 100				> 100	> 100			> 100	> 100	> 100			
COc1cc(C(=O)OCCCn2nc3ccccc3n2)cc(OC)c1OC	> 100	> 100	> 100	> 100	> 100	> 100	> 100	> 100	> 100	> 100	> 100			
C[C@@H](Oc1ccc(-n2nc3ccccc3n2)cc1)C(=O)O	> 100	> 100	> 100	> 100	> 100	> 100	> 100	> 100	> 100	> 100	> 100		> 100	
[O-][n+]1c2ccccc2nn1-c1ccc(O)cc1	> 100	> 100	> 100	> 100	> 100	> 100	> 100	> 100	> 100	> 100	> 100	> 100	> 100	
CN(C)c1cccc(C(=O)OCCn2nnc3ccccc32)c1	> 100	≥ 100	> 100	> 100	> 100	> 100	> 100	> 100	> 100	65	≥ 100			
CN(C)C(=O)Cn1nnc2ccccc21	> 100	> 100	> 100	> 100	> 100	> 100	> 100	> 100	> 100	> 100	> 100			
Clc1cc2nn(C3CCCO3)nc2cc1Cl (stereo unspecified)	> 100				> 100	> 100			> 100	> 100	> 100			
NNC(=O)Cn1nnc2ccccc21	> 100	> 100	> 100	> 100	> 100	> 100	> 100	> 100	> 100	> 100	> 100			
CC(CC(=O)O)n1nc2ccc3ccccc3c2n1 (stereo unspecified)	> 100	> 100	> 100	> 100	> 100	> 100	> 100	> 100	> 100	> 100	> 100			
Cc1cc2nnn(C3CCCO3)c2cc1C (stereo unspecified)	> 100				> 100	> 100			> 100	> 100	> 100			
CN1CCN(CCn2nnc3ccccc32)CC1	> 100	> 100	> 100	> 100	> 100	> 100	> 100	> 100	> 100	> 100	> 100			
CC(CC(=O)O)n1nnc2ccc([N+](=O)[O-])cc21 (stereo unspecified)	> 100	> 100	> 100	> 100	> 100	> 100	> 100	> 100	> 100	> 100	> 100			
COc1cc(C(=O)OCCn2nnc3ccccc32)cc(OC)c1OC	> 100	80	> 100	> 100	> 100	70	> 100	> 100	> 100	1.9	40			
O=C(O)COc1ccc(-n2nc3ccc(Cl)cc3[n+]2[O-])cc1	> 100	100	> 100	> 100	> 100	> 100	> 100	> 100	> 100	> 100	> 100	> 100	> 100	
Nc1nc2c(ncn2COCCO)c(=O)[nH]1 [ACYCLOVIR]	> 100	> 100	> 100	> 100		> 100	> 100	> 100	> 100	> 100	> 100		> 100	1.2
C[C@H](Oc1ccc(-n2nc3ccccc3n2)cc1)C(=O)O	> 100	> 100	> 100	> 100	> 100	> 100	> 100	> 100	> 100	> 100	> 100		> 100	
COc1cc(/C=C/C(=O)OCCn2nnc3ccccc32)cc(OC)c1OC	> 100	> 100	> 100	> 100	> 100	> 100	> 100	> 100	> 100	45	70			
